Columns and labels:
A549 = experiment: MTT assay, antiproliferative activity; format: cell-based; settings: Homo sapiens, 48h, read-out: Mean Growth Percentage
Method: (§1) Pyrazole acylhydrazones 10–13 and amides 14–22 were tested by MTT assay to evaluate their antiproliferative and cytotoxicity properties against a panel of eight tumor cell lines and normal fibroblasts.
(§2) All reagents were purchased from EuroClone, Milan, Italy). The following cell lines were used for MTT assays: SKOV-3 (ovarian adenocarcinoma, ATCC, Manassas, VA, USA); MCF-7 (breast adenocarcinoma, Biologic Bank and Cell Factory, IRCCS Policlinico San Martino, Genoa, Italy); Hep-G2 (hepatocellular carcinoma, ATCC, Manassas, VA, USA); SK-MEL28 (skin melanoma, Biologic Bank and Cell Factory, IRCCS Policlinico San Martino, Genoa, Italy), GM-6114 (embryonic human fibroblast, ATCC, Manassas, VA, USA); MDA-MB231 (breast adenocarcinoma, Biologic Bank and Cell Factory, IRCCS Policlinico San Martino, Genoa, Italy); HeLa (cervical adenocarcinoma, Biologic Bank and Cell Factory, IRCCS Policlinico San Martino, Genoa, Italy); SK-BR3 (breast andenocarcinoma, Biologic Bank and Cell Factory, IRCCS Policlinico San Martino, Genoa, Italy); A549 (lung carcinoma, Biologic Bank and Cell Factory, IRCCS Policlinico San Martino, Genoa, Italy); HUVEC (Human Umbilical Vein Endothelial Cells, ATCC, Manassas, VA, USA). All cell lines were grown in their medium with 10% FBS, 2 mM Glutamine, and 1% penstrep and incubated at 37 °C in 5% CO2 in a humidified environment. The cell lines were plated in 96-well plates at an adequate number to reach 80–90% confluence at the end of the assay. 16 h after cell plating, a 10 mM DMSO stock solution of the compounds was diluted in growth medium and added at a final working concentration of 10 μM. After 48h of incubation, a 2 mg/mL PBS solution of MTT (3-(4,5-dimethyl-2-thiazolyl)-2,5-diphenyl-2H-tetrazolium bromide) was added (30 μL/well). After 4h, the supernatant was removed, and the Formazan precipitates were dissolved in DMSO (100 μL/well). The 96-well plates were incubated for 20 min, and absorbance was measured at 570 nm using a plate reader. The results are expressed as a percentage ratio over control samples (100%) in which the cells were incubated with the same amount of DMSO but without compounds. Each value is the mean of three independent experiments run in six replicates.

Hep-G2 = experiment: MTT assay, antiproliferative activity; format: cell-based; settings: Homo sapiens, HepG2, 48h
Method: as §1, §2

MDA-MB231 = experiment: MTT assay, antiproliferative activity; format: cell-based; settings: Homo sapiens, MDA-MB-231, 48h
Method: as §1, §2

SK-BR3 = experiment: MTT assay, antiproliferative activity; format: cell-based; settings: Homo sapiens, SK-BR-3, 48h
Method: as §1, §2

HeLa = experiment: MTT assay, antiproliferative activity; format: cell-based; settings: Homo sapiens, 10 µM, 48h, read-out: Mean Growth Percentage
Method: as §1, §2
(§3) Each IC50 value is the mean of three independent experiments run in duplicate.

MCF7 = experiment: MTT assay, antiproliferative activity; format: cell-based; settings: Homo sapiens, 10 µM, 48h
Method: as §1, §2, §3

SKMEL28 = experiment: MTT assay, antiproliferative activity; format: cell-based; settings: Homo sapiens, SK-MEL-28, 10 µM, 48h
Method: as §1, §2, §3

SKOV3 = experiment: MTT assay, antiproliferative activity; format: cell-based; settings: Homo sapiens, SK-OV-3, 10 µM, 48h
Method: as §1, §2, §3

GM-6114 = experiment: MTT assay, cytotoxicity on normal fibroblasts; format: cell-based; settings: human, 48 h, 10 µM
washed platelets [1] = experiment: Platelet aggregation (thrombin-induced, Born's method); format: cell-based; settings: Homo sapiens, 0.1 U/mL thrombin, mean ± SD, read-out: IC50 Aggregation inhibition
Method: (§4) The antioxidant properties of acylhydrazones 10–13 and pyrazolyl amides 14–22 were tested by evaluating their inhibition of platelet aggregation and ROS production (Figure 3, Table S1). In fact, human platelets could represent a fast and low-cost biological model to screen compounds as anticancer, anti-inflammatory, and antiaggregating agents. Moreover, ROS production inhibition, related to human platelet aggregation, could provide a good indication of the anti-inflammatory and antioxidant properties of the newly synthesized compounds [47, 50, 51, 52]. N-acetylcysteine (NAC) and acetyl salicylic acid (ASA) were used as reference drugs for antioxidant and antiaggregant activities, respectively.
(§5) Freshly drawn venous blood from healthy volunteers from “Centro Trasfusionale” (IRCCS Policlinico San Martino, Genoa, Italy) was collected into a 130 mM aqueous trisodium citrate anticoagulant solution (9:1). The donors claimed to not have taken drugs known to interfere with platelet function during the two weeks prior to blood collection and gave their informed consent. Whole blood was centrifuged at 100× g for 20 min to afford platelet-rich plasma that was then spun at 1100× g for 15 min. The obtained pellet was washed once with a pH 5.2 ACD solution (75 mM trisodium citrate, 42 mM citric acid, and 136 mM glucose), centrifuged at 1100× g for 15 min, and then re-suspended in pH 7.4 Hepes buffer (145 mM NaCl, 5 mM KCl, 1 mM MgSO4, 10 mM glucose, and 10 mM HEPES).
Thrombin was purchased from Sigma-Aldrich/Merck Millipore. A DMSO solution of compounds 10–22 was diluted in saline immediately before each experiment and added to the washed platelets (3.0 × 10^8/mL) at 37 °C. After 3 min, 0.1 U/mL thrombin was added, and platelet aggregation was quantified according to Born’s method using a Bio-Data Aggregometer (Bio-Data Corporation, Horsham, PA, USA). The IC50 values were calculated as detailed above.

washed platelets [2] = experiment: ROS assay in platelets (DCFH-DA, thrombin-stimulated); format: cell-based, human; settings: Homo sapiens, Platelet, 0.1 U/mL thrombin, mean ± SD, read-out: IC50 ROS production inhibition
Method: as §4, §5
2′,7′-Dichlorofluorescein diacetate (DCFH-DA) and thrombin were purchased from Sigma-Aldrich/Merck Millipore. DMSO solutions of 10–22 were diluted in saline immediately before each experiment. ROS production was quantified by DCFH-DA, a ROS-sensitive probe that yields, upon oxidation, the fluorescent adduct DCF that is trapped inside the cells. Briefly, washed platelets (1.0 × 10^8/mL), pre-incubated with saline solutions of 10–22 for 15 min at 37 °C, were stimulated by 0.1 U/mL thrombin. Incubation was stopped by cooling samples in an ice bath, and then samples were immediately analyzed in a Merck Millipore Bioscience Guava easyCyte flow cytometer (Merk Millipore, Burlington, MA, USA). The reported IC50 values represent the molar concentration of the compounds able to inhibit 50% of the maximal aggregation induced by the agonist and are calculated as the percentage inhibition of the maximal aggregation measured in the presence of the agent compared with the measure in a control sample containing saline, carried out under the same conditions. The IC50 values were extrapolated from nonlinear regression analysis of concentration–response curves (three points) using MS Excel software (Microsoft 365 suite). Each IC50 value is the mean of six independent experiments.

Structure (SMILES) | activity at 10 µM (A549) | Mean growth percentage at 10 µM (Hep-G2) | Mean growth percentage at 10 µM (MDA-MB231) | Mean growth percentage at 10 µM (SK-BR3) | activity at 10 µM (HeLa) | mean growth percentage (cell growth remaining vs control) at 10 µM (MCF7) | Mean growth percentage at 10 µM (SKMEL28) | Mean growth percentage at 10 µM (SKOV3) | Mean Growth Percentage (GM-6114) | IC50 (washed platelets [1]) | IC50 (washed platelets [2]) | melting point
COc1ccc(/C=N/NC(=O)c2c(Nc3ccccc3)nn(C)c2N)cc1OC [12b, (E)-5-amino-N′-(3,4-dimethoxybenzylidene)-1-methyl-3-(phenylamino)-1H-pyrazole-4-carbohydrazide] | 95.3% | 92.7% | 91.7% | 94.2% | 92.8% | 101% | 73.3% | 98.6% | 99.78% | 187 ± 16 µM | 106 ± 9 µM | 104 to 106 °C
COc1ccc(/C=N/NC(=O)c2c(Nc3ccccc3)nn(CC(O)c3ccccc3)c2N)cc1OC (stereo not drawn) [13b, (E)-5-amino-N′-(3,4-dimethoxybenzylidene)-1-(2-hydroxy-2-phenylethyl)-3-(phenylamino)-1H-pyrazole-4-carbohydrazide] | 104% | 106% | 92.1% | 92.2% | 98.8% | 101% | 95.7% | 114% | 106.86% | 909 ± 87 µM | 433 ± 32 µM | 158 to 159 °C
COc1ccc(/C=N/NC(=O)c2c(Nc3ccccc3)nn(CC(O)c3ccccc3)c2N)cc1Oc1ccccc1 (stereo not drawn) [13c, (E)-5-amino-1-(2-hydroxy-2-phenylethyl)-N′-(4-methoxy-3-phenoxybenzylidene)-3-(phenylamino)-1H-pyrazole-4-carbohydrazide] | 94.4% | 125% | 104% | 87.5% | 97.9% | 99.8% | 104% | 129% | 99.14% | 313 ± 29 µM | 209 ± 15 µM | 144 to 145 °C
CCOC(=O)c1c(NC(=O)c2ccc(OC)cc2)n[nH]c1Nc1ccccc1 [compound 15, Ethyl 3-(4-methoxybenzamido)-5-(phenylamino)-1H-pyrazole-4-carboxylate] | 67.9% | 85.5% | 130% | 99.8% | 105% | 65.9% | 71.7% | 88.4% | 68.40% | 250 ± 19 µM | 323 ± 14 µM | 155 to 157 °C
CCOC(=O)c1c(NC(=O)c2ccc(OC)c(OC)c2)n[nH]c1Nc1ccccc1 [compound 16, Ethyl 3-(3,4-dimethoxybenzamido)-5-(phenylamino)-1H-pyrazole-4-carboxylate] | 52.6% | 49.1% | 96% | 82.5% | 57.6% | 62.4% | 54% | 66.9% | 53.68% | 292 ± 28 µM | 310 ± 24 µM | 143 to 145 °C
CCOC(=O)c1c(NC(=O)c2ccc(Cl)cc2)nn(C)c1Nc1ccccc1 [compound 18, Ethyl 3-(4-chlorobenzamido)-1-methyl-5-(phenylamino)-1H-pyrazole-4-carboxylate] | 69.6% | 78.5% | 141% | 80.9% | 91.5% | 63.5% | 68.4% | 96.9% | 72.99% | 268 ± 25 µM | 273 ± 17 µM | 158 to 161 °C
CCOC(=O)c1c(NC(=O)c2ccc(OC)cc2)nn(C)c1Nc1ccccc1 [compound 19, Ethyl 3-(4-Methoxybenzamido)-1-methyl-5-(phenylamino)-1H-pyrazole-4-carboxylate] | 92.9% | 105% | 136% | 103% | 124% | 95.2% | 85.2% | 97.3% | 66.69% | 294 ± 26 µM | 293 ± 18 µM | 143 to 145 °C
